From patent US20190075787A1, “COMPOSITIONS AND METHODS FOR CROP DEFENSE” (AdvanSix Resins & Chemicals LLC, priority 2017, published 2019)

Experiments:
[1] = Herbicide comparative solubility: saflufenacil dissolved in each solvent; format: physicochemical; conditions: room temperature; vials of 20, 30, 40 and 50 wt. % saflufenacil
Description: (§1) The solubility of the herbicide saflufenacil was determined for thirteen solvents. Three of the solvents were caprolactam-derived solvents in accordance with this disclosure. The remaining ten were comparative solvents. The solubility of saflufenacil was evaluated for each solvent by preparing four, 2 ml vials containing 20 wt. %, 30 wt. %, 40 wt. % and 50 wt. % of saflufenacil. To prepare the 20 wt. % vial, 0.040 g of saflufenacil was added to 0.160 ml of solvent. To prepare the 30 wt. % vial, 0.060 g of saflufenacil was added to 0.140 ml of solvent. To prepare the 40 wt. % vial, […] of saflufenacil was added to 0.120 ml of solvent. To prepare the 50 wt. % vial, 0.100 g of saflufenacil was added to 0.100 ml of solvent. The vials were capped and swirled at room temperature until no change in solubility was observed. […] Solvents 1-3 are in accordance with the present disclosure. Solvents 4-13 are comparative solvents.

[2] = Insecticide comparative solubility: bifenthrin dissolved in each solvent; format: physicochemical; conditions: room temperature; vials of 20, 30, 40 and 50 wt. % bifenthrin
[3] = Fungicide comparative solubility: tebuconazole dissolved in each solvent; format: physicochemical; conditions: room temperature; vials of 20, 30, 40 and 50 wt. % tebuconazole
Description: as §1, with “observed. Test samples including the fungicide tebuconazole were prepared as described above for Example 1 for saflufenacil.” for “observed.”, “As in Table 1 above, solvents” for “Solvents”, “disclosure and solvents” for “disclosure. Solvents”

[4] = general statement, no test described; cited from earlier work
[5] = general statement, no test described; cited from earlier work; remark: listed apart in the source
[6] = Hansen Solubility Parameters of solvents; format: physicochemical
From the text: As is known in the art, Hansen Solubility Parameters can be used to predict the effectiveness of a solvent. […] Thus, one skilled in the art would not expect the caprolactam-derived solvents to be as effective as NMP and other commonly used solvents.

| SMILES | maximum weight percentage of saflufenacil dissolved in each solvent [1] [%] | maximum weight percentage of bifenthrin dissolved in each solvent [2] [%] | maximum weight percentage of tebuconazole dissolved in each solvent [3] [%] | other results |
| --- | --- | --- | --- | --- |
| CCN1CCCCCC1=O [Solvent 2] | 30 | 50 | 50 | – |
| CCCCN1CCCCCC1=O [Solvent 3] | 20 | 40 | 40 | – |
| CN1CCCC1=O [Solvent 4, N-methyl-2-pyrrolidone] | – | – | – | reproductive toxin [4]: has been found to be a reproductive toxin |
| N#CCCN1CCCCCC1=O [Solvent 13] | <20 | <20 | <20 | – |
| CN1CCCCCC1=O [Solvent 1, N-methylcaprolactam] | – | – | – | reproductive toxin [4]: not considered to be either a reproductive toxin or a carcinogen; carcinogen [5]: not considered to be either a reproductive toxin or a carcinogen |
| CCCCCCCCCC(=O)N(C)C [Solvent 6] | 30 | 30 | 30 | – |
| CCCCN1CCCC1=O [Solvent 5] | 30 | 50 | 40 | – |
| COC(=O)CCCCC(=O)N(C)C [Solvent 7, N,N-dimethyladipamide methyl ester] | – | – | – | Hansen Solubility Parameters: Dispersion [6]: 17.2; Hansen Solubility Parameters: Hydrogen Bonding [6]: 9.3; Hansen Solubility Parameters: Polarity [6]: 9.7 |
| CN1CCCC1=O [Solvent 4] | 50 | 50 | 50 | – |
| O=C1CCCCCN1 [caprolactam] | – | – | – | reproductive toxin [4]: has not been found to be, and is not expected to be, either a reproductive toxin or a carcinogen; carcinogen [5]: has not been found to be, and is not expected to be, either a reproductive toxin or a carcinogen |
| CN1CCCCCC1=O [Solvent 1] | 40 | 40 | 50 | – |
| O=C1CCCCC1 [Solvent 9] | <20 | 50 | 40 | – |
| CC1=CC(=O)CC(C)(C)C1 [isophorone] | – | – | – | carcinogen [5]: suspected carcinogen |
